Reference: article PMC9814544 (Communications Chemistry, 2020)
Entries after “also recorded” stand apart in the source; their conditions may differ.

Assays:
LOX129 = tested on: T1, LOX129; assay: STD-NMR binding, LOX129; parameters: species or system human; conditions: 5 µM LOX129, 250 µM compound; n = 1
T1 construct: 6His-tag with thrombin cleavage site (N, cleaved yes); made in house; host or cells: E. coli SHuffle cells (New England BioLabs), pET28a
Experimental: Selected cluster representatives were analyzed by multiple biophysical methods to further validate and characterize the identified compounds.
STD NMR binding experiments[51] were performed in 2.5 mm NMR tubes on a Bruker AVII+ 600 MHz spectrometer equipped with a 5 mm cryo-TCI probe and z-gradients. 5 μM LOX129 was incubated with 250 μM BI-0115 in 25 mM Na-phosphate, 100 mM NaCl pH 7.5 in D2O at 298 K and a total d6-DMSO concentration of 1%. The on- and off-resonance spectra were recorded in an interleaved fashion with 256 transients, respectively. Saturation was achieved by irradiation with a Gaussian pulse train for 3 s at resonance frequencies of 100 Hz and 20 kHz, respectively. Residual protein signals were suppressed by employing a 30 ms spin lock pulse prior to acquisition. Water suppression was achieved by a WATERGATE sequence employing a double gradient echo[53]. The signal intensity in the saturation transfer difference spectrum was normalized by the following equation to yield the %STD value: %STD = 100 * (((I(0)-I(sat))/I(0))), where I(0) is the intensity of one signal in the off-resonance and I(sat) the intensity of one signal in the on-resonance spectrum, respectively. Topspin 3.0 (Bruker Biospin) was used to process and analyze data.

LOX129 (LOX-1) = tested on: T2, LOX129 (LOX-1); assay: Native ESI-MS of LOX-1 with ligand; type: binding, human; conditions: Vc = 60V; up to 10 eq ligand
T2 construct: 6His-tag with thrombin cleavage site (N, cleaved yes); made in house; host or cells: E. coli SHuffle cells (New England BioLabs), pET28a
Experimental: This is in agreement with the biophysical data obtained so far. The ITC measurements gave a stoichiometry of protein:ligand of 1.8 which fits to multiples of a 2:1 complex. To confirm that the crystallographically observed tetrameric arrangement exists also in solution native Electrospray-Ionization Mass Spectrometry (ESI-MS) analysis was used. A MS experiment using covalent dimeric LOX129 under denaturing conditions was performed giving a mass of 33773 Da, corresponding to a mass difference of 13 Da to the theoretical molecular weight of 33786 Da (Supplementary Fig. 9). This mass difference corresponds to the three intramolecular and the one intermolecular disulfide bonds (14 Da). MS analysis under non denaturing conditions (Fig. 4a) measured LOX129 mainly as a dimer. Only traces of the tetrameric state were detectable. A binding experiment of BI-0115 to LOX-1 was performed using soft MS tuning parameters (Vc = 40V) in order to maintain BI-0115 interactions in the gas phase.
Mass spectrometry experiments were carried out on an electrospray time-of-flight mass spectrometer (LCT, Waters, Manchester, UK) equipped with an automated chip-based nanoESI device (Triversa Nanomate, Advion Biosciences, Ithaca, NY). […]

[1] = tested on: panel of GPCRs, drug transporters, ion channels, nuclear receptors, kinases, and other non-kinase enzymes; assay: Eurofins CEREP off-target panel; conditions: at 10 µM; measured once
Experimental: To assess potential off-target liabilities, BI-0115 was tested on a panel of assays across various key pharmacological target classes (GPCRs, drug transporters, ion channels, nuclear receptors, kinases, and other non-kinase enzymes; Eurofins CEREP, France). […] Although the compound solubility is low, it was sufficient to get a saturable dose response in the cellular assay and the various biophysical assays. Permeability, as measured with the PAMPA assay is good.

## CCCN1C(=O)c2ccc(Cl)cc2Nc2ncccc21 [BI-0115]
LOX129
  STD-NMR: binding
LOX129 (LOX-1)
  ligand induced tetramerization, increase of the 16+ charge state: up to 33%
[1]
  CEREP profile: very clean profile; also recorded: clean
